Seven molecules from patent publication US9464073B2, “Pyrimidine hydroxy amide compounds as HDAC6 selective inhibitors” (Acetylon Pharmaceuticals, Inc., priority 2014, dated 2016) can be followed below.

Entries after “also recorded” stand apart in the source; their conditions may differ.

Data set [1] is described as follows: Mouse pharmacokinetic studies. The format is in vivo. To be noted: male C57BL/6 mice, IV 1 mg/kg, from AUC in plasma and brain; for Kp: mouse, read-out: Mouse plasma/brain ratio. As for the experimental part: Male C57BL/6 mice were fasted overnight. Compounds of the invention as well as two previously known HDAC6 inhibitors, Compounds A and B, were dissolved in dimethyl acetamide at 10 times the final concentration, then Solutol HS 15 (BASF) was added to a final concentration of 10%. Finally 80% saline was added and vortexed to achieve a clear solution. Fifteen animals were injected via the tail vein with 1 mg/kg compound. Blood was collected by retro-orbital bleed at 5 minutes, 15 minutes, 30 minutes, 1 hour, 2 hours, 4 hours, 8 hours and 24 hours after dosing. At 5 minutes, 30 minutes, 1 hour and 4 hours after dosing three animals per time point were sacrificed and brains were removed. The blood was centrifuged at 2000 g for 5 minutes at 4° C. to obtain plasma. Brain samples were homogenized in PBS. The plasma and brain homogenate were extracted with acetonitrile and the level of compound was analyzed by LC/MS/MS. The level of compound in plasma was calculated from a standard curve in rat plasma and the level in brain was calculated from a standard curve in brain homogenate. The area under the curve in plasma and brain were calculated using WinNonLin software. The brain to plasma ratio was determined using the area under the curve values for the two compartments.

Data set [2] can be described thus: Rat pharmacokinetic studies. The format is in vivo. The settings on record: plasma, male SD rats; for clearance: IV 1 mg/kg; for bioavailability: PO 5 mg/kg vs IV 1 mg/kg, dose adjusted AUC. The protocol:
Male SD rats were fasted overnight. Compounds of the invention as well as two previously known HDAC6 inhibitors, Compounds A and B were dissolved in dimethyl acetamide at 10 times the final concentration, then Solutol HS 15 (BASF) was added to a final concentration of 10%. Finally 80% saline was added and vortexed to achieve a clear solution. For the IV dosing three animals were injected via the foot dorsal vein with 1 mg/kg compound. For the PO dosing 5 mg/kg of compound was delivered by oral gavage. Blood was collected via the tail vein into K2EDTA tubes at 5 minutes, 15 minutes, 30 minutes, 1 hour, 2 hours, 4 hours, 8 hours and 24 hours after dosing. The blood was centrifuged at 2000 g for 5 minutes at 4° C. to obtain plasma. The plasma was extracted with acetonitrile and the level of compound was analyzed by LC/MS/MS. The level of compound in plasma was calculated from a standard curve in rat plasma. The IV clearance and area under the curve were calculated using WinNonLin software. The dose adjusted area under the curve for the IV and oral dosing were used to calculate the oral bioavailability. Compounds A and B, previously known HDAC6 inhibitors, are shown below (See, e.g., U.S. Pat. No. 8,614,223): […]

For the next data set, the target named is HDAC1 (Homo sapiens (Human), UniProt Q13547). As to the kind of experiment: HDAC enzyme assay (HDAC1). The format is biochemical. The protocol: (§1) Compounds for testing were diluted in DMSO to 50 fold the final concentration and a ten point three fold dilution series was made. The compounds were diluted in assay buffer (50 mM HEPES, pH 7.4, 100 mM KCl, 0.001% Tween-20, 0.05% BSA, 20 μM TCEP) to 6 fold their final concentration. The HDAC enzymes (purchased from BPS Biosciences) were diluted to 1.5 fold their final concentration in assay buffer. The tripeptide substrate and trypsin at 0.05 μM final concentration were diluted in assay buffer at 6 fold their final concentration. The final enzyme concentrations used in these assays were 3.3 ng/ml (HDAC1), 0.2 ng/ml (HDAC2), 0.08 ng/ml (HDAC3) and 2 ng/ml (HDAC6). The final substrate concentrations used were 16 μM (HDAC1), 10 μM (HDAC2), 17 μM (HDAC3) and 14 μM (HDAC6).
Chain of HDAC1 (Q13547 whole entry): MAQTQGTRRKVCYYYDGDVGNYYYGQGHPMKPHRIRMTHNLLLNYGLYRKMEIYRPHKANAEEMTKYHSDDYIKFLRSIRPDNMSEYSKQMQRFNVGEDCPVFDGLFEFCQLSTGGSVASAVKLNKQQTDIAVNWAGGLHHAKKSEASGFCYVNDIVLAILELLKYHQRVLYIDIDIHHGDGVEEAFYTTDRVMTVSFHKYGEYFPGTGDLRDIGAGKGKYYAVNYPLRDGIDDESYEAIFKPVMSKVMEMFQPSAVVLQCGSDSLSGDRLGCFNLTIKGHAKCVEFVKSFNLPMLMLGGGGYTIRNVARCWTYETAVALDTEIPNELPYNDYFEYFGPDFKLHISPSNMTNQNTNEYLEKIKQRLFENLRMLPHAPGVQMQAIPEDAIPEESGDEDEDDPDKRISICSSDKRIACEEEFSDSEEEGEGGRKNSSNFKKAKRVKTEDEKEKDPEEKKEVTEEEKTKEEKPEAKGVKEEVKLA
(§2) Five μl of compounds and 20 μl of enzyme were added to wells of a black, opaque 384 well plate in duplicate. Enzyme and compound were incubated together at room temperature for 10 minutes. Five μl of substrate was added to each well, the plate was shaken for 60 seconds and placed into a Victor 2 microtiter plate reader. The development of fluorescence was monitored for 60 min and the linear rate of the reaction was calculated. The IC50 was determined using Graph Pad Prism by a four parameter curve fit.

The next data set addresses HDAC3 (Homo sapiens (Human), UniProt O15379). The data set is described as follows: HDAC enzyme assay (HDAC3). The data set is classed as biochemical. As for the experimental part:
as §1, §2

The next data set addresses HDAC2 (Homo sapiens (Human), UniProt Q92769). As to the kind of experiment: HDAC enzyme assay (HDAC2). The data set is classed as biochemical. The protocol: as §1, §2
The target of the next data set is HDAC6 (Homo sapiens (Human), UniProt Q9UBN7). As to the kind of experiment: HDAC enzyme assay (HDAC6). The format is biochemical. As for the experimental part:
as §1, §2

A further data set concerns taxol treated rats. The data set is described as follows: Taxol induced neuropathic pain study in rats (Von Frey testing). The data set is classed as in vivo, rat. As for the experimental part: This study included a histology endpoint in addition to the von Frey testing for paw sensitivity.
Neuropathic pain is induced by a 0.5 ml/kg injection of Taxol (2 mg/kg) administered IP on days 0-12. The development of neuropathic pain is confirmed by measuring mechanical allodynia (Von Frey test) on study day 13.
Allodynic response to tactile stimulation is assessed using the Von Frey apparatus (Touch Test®).
The rat will be placed in an enclosure and positioned on a metal mesh surface, but allowed to move freely. The rats' cabins are covered with red cellophane to diminish environmental disturbances. The test begins after a cessation of exploratory behavior. The set of Von Frey monofilaments provide an approximate logarithmic scale of actual force and a linear scale of perceived intensity.
The operating principle: when the tip of a fiber of given length and diameter is pressed against the skin at right angles, the force of application increases as long as the researcher continues to advance the probe until the fiber bends. After the fiber bends, the probe continues to advance, causing the fiber to bend more, but without additional force being applied. […] The Touch Test™ Sensory Evaluator can be used on the plantar surfaces of the rat's foot. The animal indicates sensation by pulling back its paw. The minimal force needed to elevate the withdrawal reflex is considered/designated as the value of reference. In order to achieve paw withdrawal, the pressure applied is sometimes greater than 60 g, often requiring the researcher to apply enough pressure with the Von Frey filament to actually lift the paw of the naive animal. Decreases in force needed to induce withdrawal are indicative of allodynia, as the force applied is a non-painful stimulus under normal conditions.

Chain of HDAC6 (Q9UBN7 whole entry): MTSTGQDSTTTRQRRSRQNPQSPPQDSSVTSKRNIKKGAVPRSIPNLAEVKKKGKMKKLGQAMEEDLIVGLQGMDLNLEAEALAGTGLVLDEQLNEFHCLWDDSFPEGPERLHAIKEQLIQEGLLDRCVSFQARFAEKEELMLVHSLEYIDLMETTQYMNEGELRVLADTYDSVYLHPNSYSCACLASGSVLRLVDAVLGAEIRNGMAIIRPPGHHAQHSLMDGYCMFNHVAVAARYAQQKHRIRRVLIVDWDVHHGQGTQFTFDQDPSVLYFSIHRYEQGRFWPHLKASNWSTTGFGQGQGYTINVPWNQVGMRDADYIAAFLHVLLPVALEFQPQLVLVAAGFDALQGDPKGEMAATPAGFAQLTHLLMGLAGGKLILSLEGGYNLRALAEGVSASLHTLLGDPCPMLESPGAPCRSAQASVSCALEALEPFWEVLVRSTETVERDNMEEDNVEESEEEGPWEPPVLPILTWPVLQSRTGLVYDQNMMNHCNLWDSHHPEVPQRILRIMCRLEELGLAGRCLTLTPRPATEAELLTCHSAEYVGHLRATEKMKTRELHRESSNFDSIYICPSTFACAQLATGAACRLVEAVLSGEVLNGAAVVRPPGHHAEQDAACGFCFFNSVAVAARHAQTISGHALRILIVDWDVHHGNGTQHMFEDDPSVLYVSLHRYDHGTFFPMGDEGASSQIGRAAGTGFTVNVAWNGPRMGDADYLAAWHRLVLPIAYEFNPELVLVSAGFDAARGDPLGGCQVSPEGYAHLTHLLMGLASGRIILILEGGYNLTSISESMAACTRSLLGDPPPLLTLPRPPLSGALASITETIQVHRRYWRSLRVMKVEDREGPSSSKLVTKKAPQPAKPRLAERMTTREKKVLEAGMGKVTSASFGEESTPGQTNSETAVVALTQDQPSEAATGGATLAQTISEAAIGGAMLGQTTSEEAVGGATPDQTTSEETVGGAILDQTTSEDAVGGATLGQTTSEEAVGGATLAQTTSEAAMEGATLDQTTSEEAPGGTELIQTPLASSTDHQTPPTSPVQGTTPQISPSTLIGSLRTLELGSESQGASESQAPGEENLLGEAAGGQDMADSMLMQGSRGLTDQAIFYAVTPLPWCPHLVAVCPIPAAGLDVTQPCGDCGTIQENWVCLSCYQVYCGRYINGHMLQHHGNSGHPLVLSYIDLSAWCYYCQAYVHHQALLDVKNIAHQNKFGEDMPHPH
Chain of HDAC3 (O15379 whole entry): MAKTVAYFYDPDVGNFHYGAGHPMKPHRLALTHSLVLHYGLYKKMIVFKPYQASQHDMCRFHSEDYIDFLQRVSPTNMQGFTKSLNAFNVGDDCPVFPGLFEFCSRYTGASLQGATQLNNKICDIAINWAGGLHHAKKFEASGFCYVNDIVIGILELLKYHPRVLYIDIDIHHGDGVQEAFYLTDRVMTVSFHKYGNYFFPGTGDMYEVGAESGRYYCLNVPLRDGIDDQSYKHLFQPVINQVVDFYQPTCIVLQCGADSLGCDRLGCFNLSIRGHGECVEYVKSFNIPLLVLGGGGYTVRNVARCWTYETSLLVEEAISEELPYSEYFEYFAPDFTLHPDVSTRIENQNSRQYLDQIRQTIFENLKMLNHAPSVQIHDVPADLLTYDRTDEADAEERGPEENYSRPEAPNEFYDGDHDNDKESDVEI
Chain of HDAC3 (Q9Y618 395-489 partner): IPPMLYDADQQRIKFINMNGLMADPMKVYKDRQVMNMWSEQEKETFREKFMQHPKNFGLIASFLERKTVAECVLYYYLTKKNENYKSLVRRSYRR
Chain of HDAC2 (Q92769 whole entry): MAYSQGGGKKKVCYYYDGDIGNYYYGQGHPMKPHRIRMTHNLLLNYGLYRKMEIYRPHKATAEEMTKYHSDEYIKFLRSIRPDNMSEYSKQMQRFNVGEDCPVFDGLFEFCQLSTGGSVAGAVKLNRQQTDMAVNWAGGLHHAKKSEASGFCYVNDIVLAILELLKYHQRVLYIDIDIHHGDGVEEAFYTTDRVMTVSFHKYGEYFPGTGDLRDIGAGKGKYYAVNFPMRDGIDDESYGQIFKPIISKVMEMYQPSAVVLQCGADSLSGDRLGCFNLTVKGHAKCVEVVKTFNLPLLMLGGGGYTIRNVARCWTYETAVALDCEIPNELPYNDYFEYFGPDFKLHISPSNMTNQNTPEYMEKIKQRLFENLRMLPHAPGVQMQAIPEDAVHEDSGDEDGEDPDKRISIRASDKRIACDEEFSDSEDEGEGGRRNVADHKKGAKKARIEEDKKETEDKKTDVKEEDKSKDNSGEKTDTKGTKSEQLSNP

As for `O=C(NO)c1cnc(NC2(c3cc(F)ccc3F)CCOCC2)nc1` [Compound 002], the Kp in data set [1] worked out at 0.45. The molecule also showed a clearance in data set [2] of 93.3 mL/min/kg. The molecule further returned a bioavailability in data set [2] of 18.4%. Further, the IC50 against HDAC1 was determined as 117 nM; against HDAC3 it was 671 nM; at HDAC2, 108 nM; against HDAC6, 2.4 nM.
Regarding `O=C(NO)c1cnc(NC2(c3cc(F)cc(F)c3)CCCCC2)nc1` [Compound 001], the Kp in data set [1] worked out at 2.55. Besides, the clearance in data set [2] is 91.7 mL/min/kg. In data set [2], this molecule had a bioavailability of 11.1%. Besides, the 50% inhibitory concentration (IC50) against HDAC1 turned out to be 1040 nM; at HDAC3, 6200 nM; against HDAC2, 870 nM; against HDAC6, 2.9 nM.
Regarding `NCC1(CC(=O)O)CCCCC1` [gabapentin, reference compound], the “withdrawal force (Von Frey)” value with taxol treated rats (150 mg/kg IP, 2 hours post dosing, study day 13) stood at 58.30 ± 1.70 g; in the data set on taxol treated rats (150 mg/kg IP, 2 hours post dosing, study day 14), 60.00 ± 0.00 g; in the data set with taxol treated rats (150 mg/kg IP, 2 hours post dosing, study day 15), 58.30 ± 1.70 g.
With `O=C(NO)c1cnc(NC2(c3ccccc3)CC2)nc1` [Compound A, reference compound], the Mouse plasma/brain ratio in data set [1] came to 1.23. In data set [2], this molecule had a clearance of 100 mL/min/kg and a bioavailability of 16.5%.
Turning to `O=C(NO)c1cnc(NC2(c3cccc(F)c3)CCCCC2)nc1` [Compound B, reference compound], in data set [1], the Mouse plasma/brain ratio was found to be 1.28. In addition, in data set [2], the clearance is 38.3 mL/min/kg and the bioavailability came to 7.9%.
Take `O=C(NO)c1cnc(NC2(c3ccccc3)CCC(F)(F)CC2)nc1` [Compound 003]: the “withdrawal force (Von Frey)” value in the data set on taxol treated rats (1 mg/kg PO b.i.d., study day 15) amounted to 58.30 ± 1.70 g. The “mean group withdrawal force (Von Frey)” value with taxol treated rats (study day 13 pre-dosing, last dose on day 12 (b.i.d.)) came out at 41.10 ± 5.88 g. For the same molecule, in the data set with taxol treated rats (taxol treated rats, 1, 3, 10 mg/kg PO b.i.d.), the “reversal of nociception / tactile allodynia” value was “completely reversed nociception; also recorded: reduced tactile allodynia”. Further, in data set [1], the Kp worked out at 0.67. In addition, the clearance in data set [2] is 61.7 mL/min/kg. In addition, in data set [2], the bioavailability stood at 41.5%. Further, the IC50 on HDAC1 stood at 961 nM; against HDAC3, 4380 nM; against HDAC2 it was 982 nM; against HDAC6 it was 3.7 nM.
In the case of `O=C(NO)c1cnc(NC2(c3cccc(F)c3)CCC3(CC2)OCCO3)nc1` [Compound 004], the IC50 was determined as 703 nM against HDAC1, 1820 nM against HDAC3, 833 nM against HDAC2 and 3.9 nM at HDAC6.
